The subject of data set [1] is MC3T3-E1 cells. The experiment in a line: Real-time RT-PCR of osteoblast differentiation markers, coated titanium implants. Conditions: Ti implants, 48 h. The data set is classed as cell-based, mouse. On the procedure:
(§1) To test the effect of the surface modification, 96-well plates were used. Ti disks were placed into the wells and treatments and UV-activation were performed over there. Cells grown onto untreated polystyrene tissue culture plastic (TCP) were added as a control for all the experiments. Cells were seeded at a density of 30,000 cells/cm^2 and they were maintained in α-MEM supplemented with 10% FCS and antibiotics. Culture media was collected after 48 hours, to test cytotoxicity and the production of the hydroxylated form of vitamin D, 25-D3. Cells were harvested after two days of culture using Trizol reagent (Roche Diagnostics, Mannheim, Germany), to analyze gene expression of several osteoblast differentiation markers and enzymes involved in vitamin D synthesis using real-time RT-PCR. On the other hand, MC3T3-E1 cells were harvested after 21 days to measure calcium content and ALP activity in the cell monolayer.
RNA was isolated from cells using a monophasic solution of phenol and guanidine thiocyanate (Trizol, Roche Diagnostics, Mannheim, Germany) according to the manufacturer's protocol. RNA was quantified at 260 nm using a Nanodrop spectrophotometer (NanoDrop Technologies, Wilmington, Del., USA).
Total RNA previously isolated was reverse-transcribed to cDNA using High Capacity RNA to cDNA kit (Applied Biosystems, Foster City, Calif.) according to the protocol of the supplier. The same amount of total RNA from each sample was converted into cDNA. Each cDNA was diluted ¼ and aliquots were stored at −20° C. until the PCR reactions were carried out.
Real-time RT-PCR was performed for two reference genes: 18S ribosomal RNA (18S rRNA), glyceraldehyde-3-phosphate dehydrogenase (GAPDH); and eleven target genes: alkaline phosphathase (ALP), Interleukin 6 (IL-6), Collagen (Coll-1), Osteocalcin (OC), Bone Morphogenetic Protein 2 (BMP-2), Osterix (Osx), Receptor activator of nuclear factor kappa-B ligand (RANKL), Osteoprogesterin (OPG) and genes involved in vitamin D synthesis such as Vitamin D3 25-hydroxylase (CYP27A1) and 25 hydroxyvitamin D3-1-alpha hydroxylase (CYP27B1). Real-time PCR were performed in the Lightcycler 480® (Roche Diagnostics, Germany). Each reaction contained 5 μl of LightCycler-FastStart DNA Master^PLUS SYBR Green I (Roche Diagnostics, Mannheim, Germany), 0.5 μM of the sense and antisense specific primers (Table 1) and 3 μl of the cDNA dilution in a final volume of 10 μl. The normal amplification program consisted of a preincubation step for denaturation of the template cDNA (10 min 95° C.), followed by 45 cycles consisting of a denaturation step (10 s 95° C.), an annealing step (10 s 60° C., except for ALP that was 10 s at 65° C., OSX with 10 s at 68° C.) and an extension step (10 s 72° C.). After each cycle, fluorescence was measured at 72° C. Every run included a negative control without cDNA template. To confirm amplification specificity, PCR products were subjected to a melting curve analysis on the LightCycler and subsequently 2% agarose/TAE gel electrophoresis, Tm and amplicon size, respectively.
To allow relative quantification after PCR, real-time efficiencies were calculated from the given slopes in the LightCycler 480 software (Roche Diagnostics, Mannheim, Germany) using serial dilutions. Relative quantification after PCR was calculated by normalizing target gene concentration in each sample by the concentration mean of the two reference genes in given sample using the Advanced relative quantification method provided by the LightCycler 480 analysis software.
Background: In qPCR the cycle at which signal appears reflects the starting amount.

Data set [2] concerns MC3T3-E1 cells. The experiment in a line: LDH activity (cell viability) on coated titanium implants. The class given is cell-based, mouse. On the procedure:
To treat implant surfaces, 10 μl of each dilution treatment were left on the surfaces and were allowed to air-dry for 15 min in the sterile flow bench. For UV-irradiation, a UV lamp of 302 nm was used at an intensity of irradiation ca. 6 mW/cm^2 during several irradiation times.
as §1, with “Culture media was collected after 48 hours, to test cytotoxicity and the production of the hydroxylated form of vitamin D, 25-D3.” left out, “On the other hand, MC3T3-E1 cells were harvested after 21 days to measure calcium content and ALP activity in the cell monolayer.” left out
Lactate dehydrogenase (LDH) activity in the culture media was used as an index of cell death. LDH activity was determined spectrophotometrically after 30 min incubation at 25° C. of 50 μl of culture and 50 μl of the reaction mixture by measuring the oxidation of NADH at 490 nm in the presence of piruvate following the manufacturer's protocol (Cytotoxicity Detection Kit (LDH), Roche Diagnostics, Mannheim, Germany). […]

“Also recorded” adds a separate entry of the source.

With `CC(C)CCC[C@@H](C)[C@H]1CC[C@H]2C3=CC=C4C[C@@H](O)CC[C@]4(C)[C@H]3CC[C@]12C` [7-DHC, 7-dehydrocholesterol], the “RANKL mRNA expression” value with MC3T3-E1 cells [1] (2×10^−2 nmols and 0.2 nmols, UV 15 minutes vs UV-untreated) is listed as “significant decrease”. In addition, the “RANKL mRNA levels” value in the data set on MC3T3-E1 cells [1] (10 minutes UV-exposed, compared to ethanol) is “statistical significant increase”; in the data set on MC3T3-E1 cells [1] (30 minutes UV-exposed), “significant decrease”. For the same molecule, the “OPG mRNA levels” value in the data set with MC3T3-E1 cells [1] (30 min UV-exposed) is recorded as “decrease”. The “ALP mRNA levels” value in the data set on MC3T3-E1 cells [1] (UV irradiated vs ethanol and UV-treated groups, significant at 30 minutes) is listed as “higher ALP mRNA levels”. For the same molecule, in the data set on MC3T3-E1 cells [1] (UV-exposed for 15 min), the “OC mRNA levels” value is reported as “tendency to increased OC mRNA levels”. Further, the RANKL gene expression entry in the data set on MC3T3-E1 cells [1] (all UV-treated groups (2×10^−2, 0.2, 2 nmols; 15 minutes) compared to control) is on record as “Statistical significances; also recorded: significantly reduced”. In addition, the “OSX mRNA levels” value in the data set with MC3T3-E1 cells [1] (between all the groups, only significant at 10 minutes of UV exposure) is “very similar”. The “BMP-2 mRNA levels” value with MC3T3-E1 cells [1] (when exposed to UV) is “No statistical differences”. The “IL-6 mRNA levels” value in the data set with MC3T3-E1 cells [1] (when exposed to UV) is “No statistical differences”. The “Collagen type-1 gene expression” value in the data set with MC3T3-E1 cells [1] (with UV exposure time, significant at 15 and 30 minutes) is reported as “trend to decrease”. The Cytotoxic effect entry in the data set with MC3T3-E1 cells [2] (Ti implants treated and UV-irradiated) was “No cytotoxic effect”. For the same molecule, in the data set on MC3T3-E1 cells [2] (Ti implants, 0.2 nmols, 24 h, UV-activated 5 to 10 minutes, compared to negative control (TCP)), the “Cell viability (LDH activity)” value was “protective effects”.

For the origin of these results see patent US8821568B2, “Implant modified with non-hydroxylated vitamin D precursors” (Numat Biomedical S.L., priority 2008, dated 2014).
